Measured values: article PMC10385850, “Modified Hederagenin Derivatives Demonstrate Ex Vivo Anthelmintic Activity against Fasciola hepatica” (Pharmaceutics, 2023)
Values joined by “and” are separate entries in the source; they are usually repeats but may differ in a detail not shown here. Equal entries are not always repeated. Where two headings read alike, the source gives them in different places.

Legend:
[1] = test system: F. hepatica newly excysted juveniles (NEJs), Italian strain; experiment: Ex vivo screen against newly excysted juveniles (NEJs), phenotype and motility scoring; type: cell-based, Fasciola hepatica; details: 10 µM; for Average motility of 25 NEJs with 95% CI, 24 hours / Average motility of 25 NEJs with 95% CI, 48 hours / Average motility of 25 NEJs with 95% CI, 72 hours: motility score 1 good/normal to 5 no movement; for Average phenotype of 25 NEJs with 95% CI, 24 hours / Average phenotype of 25 NEJs with 95% CI, 48 hours / Average phenotype of 25 NEJs with 95% CI, 72 hours: ultrastructure score 1 normal to 6 dead or dissolved; for Activity against NEJs (first screen), in words: 72 h co-culture
Procedure, shortened: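 Newly excysted juveniles of the Italian strain of F. hepatica were obtained by excysting metacercariae and exposed ex vivo to test compounds at 10 μM final concentration in 0.1% DMSO. Controls were 0.1% DMSO (negative) and 10 μM TCBZ in 0.1% DMSO (positive). Motility was scored from 1 (good/normal) to 5 (no movement), and ultrastructural phenotype changes were scored with an established matrix.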

[2] = test system: wild strain adult F. hepatica; experiment: Ex vivo motility assay on adult liver flukes (wild strain); type: cell-based, Fasciola hepatica; details: 40 µM; for Effect on wild strain adult fluke motility, in words: 72 h; for Average motility of 4 parasites with 95% CI at 72 hour time point: wild strain adult flukes, score 1 good/normal to 6 no movement or dead
Procedure, shortened: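 Wild-strain adult F. hepatica of unknown provenance (n = 4 per condition) were exposed ex vivo to 40 µM compound in 0.4% DMSO for 72 h. Motility was scored from 1 (normal) to 6 (no movement/dead).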

[3] = test system: immature F. hepatica flukes (Italian strain); experiment: Ex vivo motility assay on immature liver flukes (Italian strain), single concentration and dose response; type: cell-based, Fasciola hepatica; details: for Average motility of 4 parasites with 95% CI at 24 hour time point: score 1 normal to 5 no movement or death; for Effect on immature fluke motility, in words: by 72 h
Description: The six selected compounds (at 40 µM in 0.4% DMSO) were evaluated on immature flukes (n = 4/condition) at 24, 48 and 72 h (Table S4). The protocol for culturing and scoring (motility) of these life stages have been previously described. Due to restricted numbers of immature worms, a dose response assay was conducted only for MC042. Here, immature worms (n = 2/concentration tested) were screened against descending concentrations of MC042 (40 µM, 13.3 µM and 4.4 µM); motility scores were recorded at 24, 48 and 72 h (Table S5). The scoring pattern used is identical to that described for NEJs.

[4] = test system: adult F. hepatica flukes (Italian strain); experiment: Ex vivo dose response motility assay on adult liver flukes (Italian strain); type: cell-based, Fasciola hepatica; details: for Average motility of 3 parasites treated with 4.4 µM, 24 hours / Average motility of 3 parasites treated with 4.4 µM, 48 hours / Average motility of 3 parasites treated with 4.4 µM, 72 hours / Average motility of 3 parasites treated with 13.3 µM, 24 hours / Average motility of 3 parasites treated with 13.3 µM, 48 hours / Average motility of 3 parasites treated with 13.3 µM, 72 hours / Average motility of 3 parasites treated with 40 µM, 24 hours / Average motility of 3 parasites treated with 40 µM, 48 hours / Average motility of 3 parasites treated with 40 µM, 72 hours: adult flukes Italian strain, score 1 to 6; for Selectivity Index (SI) on Adult Flukes SI=CC50/EC50, 72 hour: CC50 in MDBK cells (24 h) / EC50 adult flukes 72 h; for EC50: Fasciola hepatica, adult flukes, motility; for Effect on adult fluke (Italian strain) movement, in words: dose response, MC042 statement at 40 μM after 72 h
Description: The collection, ex vivo culturing and screening of adult liver fluke (Italian strain; n = 3/condition) was previously described. Dose response assays (40 µM, 13.3 µM and 4.4 µM) were conducted for MC014, MC042, MC035, MC055 and MC062 with motility scores recorded at 24, 48 and 72 h (Table S6).

[5] = MTT cell viability assay on MDBK cells; type: cell-based, bovine; details: bovine, MDBK cells (Madin–Darby bovine kidney); MDBK cells, MTT, 24 h exposure; read-out: CC50 with 95% CI on MDBK cells (cytotoxicity)
Description: MTT cell viability assays were performed on Madin–Darby bovine kidney (MDBK cells) for the five selected hederagenin derivatives (MC014, MC035, MC042, MC055 and MC062) using final concentrations of 100 μM, 75 μM, 50 μM, 25 μM, 10 μM, 5 μM and 1 μM (in 1% DMSO). Negative (1% v/v Triton X-100, Sigma-Aldrich, UK) and positive (1% v/v DMSO or media only) controls were included. The protocol was followed as previously described. Absolute EC50 values were calculated from the corrected absorbance of replicates by non-linear regression, after log transformation of concentrations and data normalization (where DMSO values represents 0% inhibition and TX-100 values represent 100% inhibition) using GrapPad Prism 8.

[6] = 40 µM, 48 h, immature flukes, score 1 to 5
[7] = 40 µM, 72 h, immature flukes, score 1 to 5
[8] = 72 h, read-out: EC50 with 95% CI on Adult Flukes (motility), 72 hour

Row | SMILES | Average motility of 25 NEJs with 95% CI, 24 hours [1] | Average phenotype of 25 NEJs with 95% CI, 24 hours [1] | Average motility of 25 NEJs with 95% CI, 48 hours [1] | Average phenotype of 25 NEJs with 95% CI, 48 hours [1] | Average motility of 25 NEJs with 95% CI, 72 hours [1] | Average phenotype of 25 NEJs with 95% CI, 72 hours [1] | Activity against NEJs (first screen), in words [1] | Effect on wild strain adult fluke motility, in words [2] | Average motility of 4 parasites with 95% CI at 72 hour time point [2] | Average motility of 4 parasites with 95% CI at 24 hour time point ([3]; 40 µM, 24 h, immature flukes) | Average motility of 4 parasites with 95% CI at 48 hour time point [3, 6] | Average motility of 4 parasites with 95% CI at 72 hour time point [3, 7] | Effect on immature fluke motility, in words ([3]; 40 µM) | Average motility of 3 parasites treated with 4.4 µM, 24 hours ([4]; 24 h) | Average motility of 3 parasites treated with 4.4 µM, 48 hours [4] | Average motility of 3 parasites treated with 4.4 µM, 72 hours ([4]; 72 h) | Average motility of 3 parasites treated with 13.3 µM, 24 hours ([4]; 24 h) | Average motility of 3 parasites treated with 13.3 µM, 48 hours [4] | Average motility of 3 parasites treated with 13.3 µM, 72 hours ([4]; 72 h) | Average motility of 3 parasites treated with 40 µM, 24 hours ([4]; 24 h) | other results
1 | CC1(C)CC[C@]2(NC(=O)N3CCOCC3)CC[C@]3(C)C(=CCC4[C@@]5(C)CC[C@@H]6OC(C)(C)OC[C@@]6(C)C5CC[C@]43C)C2C1 (stereo partly drawn) [MC042, N-((4aR,6aR,6bS,8aS,14bR,16aS)-2,2,4a,6a,6b,11,11,14b-Octamethyl-4a,5,6,6a,6b,7,8,9,10,11,12,12a, 14,14a,14b,15,16,16a-octadecahydro-4H-piceno[3,4-d][1,3]dioxin-8a(4bH)-yl)-morpholine-4-carboxamide] | 5.00 (5.0;5.0) | 6.00 (6.0;6.0) | 5.00 (5.0;5.0) | 6.00 (6.0;6.0) | 5.00 (5.0;5.0) | 6.00 (6.0;6.0) | maximal alterations to both phenotype/ultrastructure and motility | no motility after 72 h | 6.00 (6.0;6.0) | 4.75 (4.2;5.2) | 5.00 (5.0;5.0) | 5.00 (5.0;5.0) | paralyzed the assayed immature flukes | 1.00 (1.0;1.0) | 2.00 (2.0; 2.0) | 3.00 (3.0; 3.0) | 3.66 (3.0;4.3) | 4.00(4.0; 4.0) | 4.00 (4.0; 4.0) | 5.33 (4.6;5.9) | Average motility of 2 parasites treated with 4.4 µM, 24 hours ([3]; 4.4 µM, 24 h, immature flukes, dose response, score 1 to 5): 4.00 (4.0;4.0); Average motility of 2 parasites treated with 4.4 µM, 48 hours ([3]; 4.4 µM, 48 h, immature flukes, dose response, score 1 to 5): 5.00 (5.0; 5.0); Average motility of 2 parasites treated with 4.4 µM, 72 hours ([3]; 4.4 µM, 72 h, immature flukes, dose response, score 1 to 5): 5.00 (5.0; 5.0); Average motility of 2 parasites treated with 13.3 µM, 24 hours ([3]; 13.3 µM, 24 h, immature flukes, dose response, score 1 to 5): 4.00 (4.0;4.0); Average motility of 2 parasites treated with 13.3 µM, 48 hours ([3]; 13.3 µM, 48 h, immature flukes, dose response, score 1 to 5): 5.00 (5.0; 5.0); Average motility of 2 parasites treated with 13.3 µM, 72 hours ([3]; 13.3 µM, 72 h, immature flukes, dose response, score 1 to 5): 5.00 (5.0; 5.0); Average motility of 2 parasites treated with 40 µM, 24 hours ([3]; 40 µM, 24 h, immature flukes, dose response, score 1 to 5): 5.00 (5.0;5.0); Average motility of 2 parasites treated with 40 µM, 48 hours ([3]; 40 µM, 48 h, immature flukes, dose response, score 1 to 5): 5.00 (5.0;5.0); Average motility of 2 parasites treated with 40 µM, 72 hours ([3]; 40 µM, 72 h, immature flukes, dose response, score 1 to 5): 5.00 (5.0,5.0); Selectivity Index (SI) on Immature Flukes SI=CC50/EC50, 24 hour ([3]; CC50 in MDBK cells / EC50 immature flukes, 24 h): 44 and 44.37; EC50 ([3]; Fasciola hepatica, immature flukes, motility, 24 h exposure, read-out: EC50 with 95% CI on Immature Flukes (motility), 24 hour): 1.07 µM; Effect on adult fluke (Italian strain) movement at lower concentrations, in words ([4]; 13.3 μM and 4.4 μM, after 72 h, compared to DMSO 0.4%): impaired movement; Average motility of 3 parasites treated with 40 µM, 48 hours [4]: 5.66 (5.0;6.3); Average motility of 3 parasites treated with 40 µM, 72 hours ([4]; 72 h): 5.66 (5.0,6.3); Selectivity Index (SI) on Adult Flukes SI=CC50/EC50, 72 hour [4]: 6.64; Selectivity Index (SI) on Adult Flukes SI=CC50/EC50, 24 hour ([4]; CC50 in MDBK cells / EC50 adult flukes, 24 h): 4 and 3.64; EC50 ([4]; 24 h exposure, read-out: EC50 with 95% CI on Adult Flukes (motility), 24 hour): 13 µM; EC50 [4, 8]: 7.15 µM; Effect on adult fluke (Italian strain) movement, in words [4]: two out of three adult flukes were completely immobilized; CC50 at 24 h [5]: 47.5 µM
2 | CC1(C)CC[C@]2(NC(=O)N3CCCC3)CC[C@]3(C)C(=CCC4[C@@]5(C)CC[C@H](O)[C@@](C)(CO)C5CC[C@]43C)C2C1 (stereo partly drawn) [MC055, N-((4aS,6aS,6bR,9R,10S,12aR)-10-Hydroxy-9-(hydroxymethyl)-2,2,6a,6b,9,12a-hexamethyl-1,3,4,5,6,6a,6b,7,8,8a,9,10,11,12,12a,12b,13,14b-octadecahydropicen-4a(2H)-yl)pyrrol-idine-1-carboxamide] | 5.00 (5.0;5.0) | 6.00 (6.0;6.0) | 5.00 (5.0;5.0) | 6.00 (6.0;6.0) | 5.00 (5.0;5.0) | 6.00 (6.0;6.0) | maximal alterations to both phenotype/ultrastructure and motility | partial paralysis | 5.25 (4.7;5.7) | 2.75 (1.8;3.6) | 5.00 (5.0;5.0) | 5.00 (5.0;5.0) | paralyzed the assayed immature flukes | 1.00 (1.0;1.0) | 1.00 (1.0;1.0) | 3.00 (3.0;3.0) | 1.00 (1.0;1.0) | 1.00 (1.0;1.0) | 4.66 (3.3;5.9) | 3.00 (3.0;3.0) | Average motility of 3 parasites treated with 40 µM, 48 hours [4]: 3.66 (3.0;4.3); Average motility of 3 parasites treated with 40 µM, 72 hours ([4]; 72 h): 5.00 (5.0;5.0); Selectivity Index (SI) on Adult Flukes SI=CC50/EC50, 72 hour [4]: 5.72; EC50 [4, 8]: 6.06 µM; Effect on adult fluke (Italian strain) movement, in words [4]: Decreased movement; CC50 at 24 h [5]: 34.7 µM
